Assay results from patent US20180064965A1, “PEPTIDE FOR PROMOTING HAIR GROWTH” (H&H GROUP CO., LTD., priority 2016, published 2018).

What was measured:
[1] = system: nude mice; assay: Hair patch assay for nude mice; assay type: in vivo; settings: subcutaneous injection of epidermal and dermal cells with 50 μg/ml peptide, 30 days
Description: Skin was peeled off from 1 day-old C57BL/6 mouse and its epidermis was separated from the dermis by 10 mg/ml Dispase digestion at 4° C. for 2 days. Epidermis and dermis were cut into small pieces and digested at 37° C. in 0.05% Trypsin-EDTA for 15 minutes and then 20 mg/ml collagenase for 60 minutes. Epidermal cells and dermal cells were collected through filtration with 70 μm strainers and low-speed centrifugation.
2×10^7 epidermal cells and 1×10^8 dermal cells were subcutaneously injected into nude mice with ddH2O or Mucinhair peptide (50 μg/ml). After 30 days, mice were sacrificed and hair patch was excised and photographed. The excised skins were paraffin-embedded and tissues were sectioned and stained with hemmtoxylin and eosin (H&E).

[2] = system: dermal papilla cells; assay: Cell proliferation assay (MTT); assay type: cell-based; settings: rat dermal papilla cells, 50 μg/ml, quotient of MTT value vs 0 hour
Description: Dermal papilla cells were isolated from rat whiskers and cells were cultured in Dulbecco's modified Eagle's medium (Thermo Scientific, Barrington, Ill., USA) with 10% fetal bovine serum (Gibco, Grand Island, N.Y., USA) and penicillin/streptomycin (100 IU/[…]) in a humidified atmosphere containing 5% CO2 at 37° C. Dermal papilla cells at the 3rd passage were used for all of the following experiments.
2×10^3 dermal papilla cells were seeded in 96-well plates and incubated with Mucinhair peptide (50 μg/ml) or ddH2O for the indicated period. 10 μL of 5 mg/mL 3-(4,5-dimethyl-2-thiazolyl)-2,5-diphenyl-2H-tetrazolium bromide solution (MTT; Sigma) was added to each well and incubated at 37° C. for 4 hours. After which, 100 μL of 10% SDS in 0.01N HCl was added to dissolve the MTT formazan crystals. The resultant optical density was measured spectrophotometrically at dual wavelengths, 550 and 630 nm. The MTT value was obtained by subtracting the OD630 value from the OD550 value.
The term “proliferation rate” used herein is defined as a quotient of the MTT value calculated from cells treated for an indicated period and that calculated from cells treated for 0 hour.

[3] = system: Hair follicles; assay: Hair follicle culture; assay type: cell-based; settings: rat whisker hair follicles, 50 μg/ml, 20th day after treatment, vs ddH2O
Description: Hair follicles were isolated from 4 week-old rat whiskers and were maintained in Dulbecco's Modified Eagle Medium supplemented with 10% fetal bovine serum, 1% (v/v) antibiotic, and 250 ng/ml fungizone in 5% CO2 at 37° C. for 24 hours. Then, the hair follicles were treated with ddH2O or Mucinhair peptide (50 μg/ml). Medium was changed every 6 days and the hair shaft lengths were measured under a phase contrast microscope on the 20th day after the treatment.

In the case of NTSDPQKENRNTG [Mucinhair peptide], the “hair follicles in hypodermis (H&E)” value [1] is reported as “has neogenic hair follicles”, the region with hairs ([1]; vs ddH2O) is reported as “larger than that injected with ddH2O” and the proliferation rate ([2]; treated for 48 hours) is reported as 2.26±0.23. For the same sequence, the proliferation rate ([2]; treated for 96 hours) was 3.31±0.21 and the hair shaft lengths [3] was “longer than those grown with ddH2O treatment”.
